Measured values: patent US6410533B1, “Antibacterial compounds” (Genzyme Corporation, priority 2000, dated 2002)
≈ marks a conversion by molar mass, not a printed value. Where two headings read alike, the source gives them in different places.

Tests used:
[1] = tested on: Staphylococcus aureus bacteria (ATCC 9604 SV); assay: Minimal inhibitory concentration (MIC), broth microdilution; type: cell-based; details: 24 h at 37° C.
How it was run: (§1)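 MIC: broth microdilution per NCCLS in Mueller-Hinton broth; overnight culture adjusted to 0.05 McFarland and diluted twenty-fold into compound-containing broth. IC50: inoculum at 0.1 McFarland diluted two-fold into TB broth with compound, 3–5 h at 37° C. Turbidity at 550 nm; IC50 is the concentration giving 50% growth inhibition.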

[2] = tested on: Staphylococcus aureus bacteria (ATCC 9604 SV); assay: IC50 determination, growth inhibition by turbidity at 550 nm; type: cell-based; details: Staphylococcus aureus ATCC 9604 SV, turbidity at 550 nm after 3-5 h at 37° C.
How it was run: as §1

[3] = tested on: methicillin-resistant Staphylococcus aureus (ATCC 33591); assay: In vivo mouse intraperitoneal infection, mortality and % survivors over 7 days; details: MRSA ATCC 33591 i.p., ICR mice; for In Vivo, single dose (% of mice rescued): single dose 1 h post inoculation; for In Vivo, double dose (% of mice rescued): 1 and 5 h post inoculation
How it was run: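 Male ICR mice (20 g, 10 per group) were infected i.p. with 2-3×10^7 CFU/mouse (LD90-100) of MRSA ATCC 33591 in broth with 5% mucin. Compound in 1% cremophore EL/saline was given s.c. at 1 h, or at 1 and 5 h, post-infection. Mortality and % survivors were recorded over 7 days.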

[4] = Staphylococcus aureus ATCC 9604 SV
[5] = ATCC9604, Staphylococcus aureus ATCC 9604 SV, read-out: MIC

SMILES	MIC [1, 4] [µg/mL]	IC50 [2] [nM]	In Vivo, single dose (% of mice rescued) ([3]; 2 mg/kg s.c.) [% @ 2 mg/kg]	In Vivo, single dose (% of mice rescued) ([3]; 20 mg/kg s.c.) [% @ 20 mg/kg]	MIC [1, 5] [µg/mL]	IC50 ([2]; ATCC9604) [nM]	In Vivo, double dose (% of mice rescued) ([3]; 2 × 2 mg/kg s.c.) [% @ 2 × 2 mg/kg]	In Vivo, double dose (% of mice rescued) ([3]; 2 × 20 mg/kg s.c.) [% @ 2 × 20 mg/kg]
O=C(Nc1cc(C(F)(F)F)cc(C(F)(F)F)c1)Nc1cc(-c2cccs2)nn1-c1ccc(Br)cc1 [Compound 109]	<0.863	155	25	25				
O=C(Nc1cc(Cl)cc(Cl)c1)Nc1cc(-c2ccsc2)nn1-c1ccc(Br)cc1 [Compound 110]	25.4 (≈ 50 µM)	164	0	0				
O=C(Nc1cc(C(F)(F)F)cc(C(F)(F)F)c1)Nc1cc(-c2ccsc2)nn1-c1ccc(Br)cc1 [Compound 111]	<0.863	126	0	0				
O=C(Nc1cc(Cl)cc(Cl)c1)Nc1cc(-c2ccco2)nn1-c1ccc(Br)cc1 [Compound 112]	6.15 (≈ 12.5 µM)	232	0	0				
O=C(Nc1cc(C(F)(F)F)cc(C(F)(F)F)c1)Nc1cc(-c2ccco2)nn1-c1ccc(Br)cc1 [Compound 113]	<0.839	152	25	0				
O=C(Nc1cc(Cl)cc(Cl)c1)Nc1cc(-c2cccnc2)nn1-c1ccc(Br)cc1 [Compound 116]	3.02 (≈ 6 µM)	391	0	0				
O=C(Nc1cc(C(F)(F)F)cc(C(F)(F)F)c1)Nc1cc(-c2cccnc2)nn1-c1ccc(Br)cc1 [Compound 117, 1-(3,5-Bis-trifluoromethyl-phenyl)-3-[2-(4-bromo-phenyl)-5-pyridin-3-yl-2H-pyrazol-3-yl]-urea]			25	0	3.42 (≈ 6 µM)	238		
O=C(Nc1cc(Cl)cc(Cl)c1)Nc1cc(-c2ccccc2)nn1CC(F)(F)F [Compound 120]	>21.5	291	0	0				
O=C(Nc1cc(C(F)(F)F)cc(C(F)(F)F)c1)Nc1cc(-c2ccccc2)nn1CC(F)(F)F [Compound 121]	<1.49	84	0	0				
O=C(Nc1cc(C(F)(F)F)cc(C(F)(F)F)c1)Nc1nc(-c2ccc(F)c(F)c2)cs1 [Compound 151]	1.40 (≈ 3 µM)	132	0	0				
Cc1cc(-c2csc(NC(=O)Nc3cc(C(F)(F)F)cc(C(F)(F)F)c3)n2)ccc1F [Compound 152]	1.39 (≈ 3 µM)	171	0	0				
O=C(Nc1ccc(F)c(C(F)(F)F)c1)Nc1nc(-c2ccc(F)c(F)c2)cs1 [Compound 168]	<0.626	180	0	0				
O=C(NCc1cccc(Cl)c1)Nc1nc(-c2ccc(Br)cc2)cs1 [Compound 175, 1-[4-(4-Bromo-phenyl)-thiazol-2-yl]-3-(3-chloro-benzyl)-urea]					5.28 (≈ 12.5 µM)	1390	0	25
